{
  "source": "patent US20130096145A1",
  "about": "“Use of 1H-quinazoline-2,4-diones” (Novartis AG, priority 2010, published 2013)",
  "data": [
    {"test_system": "OF1 mice", "experiment": "Murine maximal electroshock test (MES Test)", "type": "in vivo", "details": "p.o., pre-treatment time 1 h; protected = seizure duration 3 s or less", "protocol": "(§1) Compounds of the invention were tested in OF1 mice using the maximal electroshock test (MES Test) described in detail by Schmutz et al., Naunyn-Schmiedeberg's Arch Pharmacol 1990, 342, 61-66. Briefly, generalized tonic-clonic convulsions of the hind extremities were induced by passing electrical current through temporal electrodes (50 Hz, 18 mA, 0.2s). […] 30 mg/kg carbamazepine was used as a positive control; mice were classified as protected by a compound if the duration of the seizure lasted only 3 second or less. Five mice were used for each treatment condition and the percentage of protected mice was used as readout (i.e. a compound could give 0%, 20%, 40%, 60%, 80% or 100% protection). Compounds of the invention were given at a dose of 50 mg/kg, p.o., 1 hour prior to induction of convulsions (i.e. “pre-treatment time -1 h”). ED50 values (ED: effective dose) were calculated using GraphPad Prism, v4.02. 15 s after shock administration, mouse blood was collected for determination of compounds' blood exposure.", "units": {"MES-Test (1 h, po) ED50": "mg/kg"}, "values": [
      {"molecule": "CS(=O)(=O)Nn1c(=O)[nH]c2cc(C(F)(F)F)c(C3CCCO3)cc2c1=O", "note": "[B-2 (R), N-[2,4-Dioxo-6-(tetrahydro-furan-2-yl)-7-trifluoromethyl-1,4-dihydro-2H-quinazolin-3-yl]-methanesulfonamide]", "MES-Test (1 h, po) ED50": 12.8}
    ]},
    {"test_system": "mouse", "experiment": "Oral bioavailability: audiogenic mouse test and/or MES test", "type": "in vivo", "details": "oral administration", "protocol": "The oral bioavailability was tested using the audiogenic mouse test (Audiogenic seizures, R. L. Collins; Chapter 14, pages: 347-372. In: Experimental Models of Epilepsy; By: Pupura, Penry, Tower, Woodbury, Walter, Raven Press, New York, 1972. Standard Book Number: 0-911216-26-X) and/or the MES test.\nas §1", "values": [
      {"molecule": "CC(F)c1cc2[nH]c(=O)n(NS(C)(=O)=O)c(=O)c2cc1-c1ccnn1C(C)C", "note": "(stereo not drawn) [Compound C-17, N-[7-(1-fluoro-ethyl)-6-(2-isopropyl-2H-pyrazol-3-yl)-2,4-dioxo-1,4-dihydro-2H-quinazolin-3-yl]-methanesulfonamide]", "In vivo orally active": "Yes"},
      {"molecule": "Cn1nccc1-c1cc2c(=O)n(NS(C)(=O)=O)c(=O)[nH]c2cc1C(F)F", "note": "[Compound C-9, N-[7-Difluoromethyl-6-(2-methyl-2H-pyrazol-3-yl)-2,4-dioxo-1,4-dihydro-2H-quinazolin-3-yl]-methanesulfonamide]", "In vivo orally active": "Yes"},
      {"molecule": "COC(C)c1cc2c(=O)n(NS(C)(=O)=O)c(=O)[nH]c2cc1C(F)(F)F", "note": "(stereo not drawn) [Compound A-2, N-[6-(1-Methoxy-ethyl)-2,4-dioxo-7-trifluoromethyl-1,4-dihydro-2H-quinazolin-3-yl]-methanesulfonamide]", "In vivo orally active": "Yes"},
      {"molecule": "CC(C)c1cc2[nH]c(=O)n(NS(C)(=O)=O)c(=O)c2cc1-c1ccnn1C", "note": "[Compound C-7, N-[7-Isopropyl-6-(2-methyl-2H-pyrazol-3-yl)-2,4-dioxo-1,4-dihydro-2H-quinazolin-3-yl]-methanesulfonamide]", "In vivo orally active": "Yes"},
      {"molecule": "COCCn1nccc1-c1cc2c(=O)n(NS(C)(=O)=O)c(=O)[nH]c2cc1C(F)(F)F", "note": "[Compound C-4, N-{6-[2-(2-Methoxy-ethyl)-2H-pyrazol-3-yl]-2,4-dioxo-7-trifluoromethyl-1,4-dihydro-2H-quinazolin-3-yl}-methanesulfonamide]", "In vivo orally active": "Yes"},
      {"molecule": "CCC(O)c1cc2c(=O)n(NS(C)(=O)=O)c(=O)[nH]c2cc1C(F)(F)F", "note": "(stereo not drawn) [Compound A-3, N-[6-(1-Hydroxy-propyl)-2,4-dioxo-7-trifluoromethyl-1,4-dihydro-2H-quinazolin-3-yl]-methanesulfonamide]", "In vivo orally active": "Yes"},
      {"molecule": "CC(C)n1nccc1-c1cc2c(=O)n(NS(C)(=O)=O)c(=O)[nH]c2cc1C(F)(F)F", "note": "[Compound C-2, N-[6-(2-Isopropyl-2H-pyrazol-3-yl)-2,4-dioxo-7-trifluoromethyl-1,4-dihydro-2H-quinazolin-3-yl]-methanesulfonamide]", "In vivo orally active": "Yes"},
      {"molecule": "CC(C)n1nccc1-c1cc2c(=O)n(NS(C)(=O)=O)c(=O)[nH]c2cc1C(F)F", "note": "[Compound C-10, N-[7-Difluoromethyl-6-(2-isopropyl-2H-pyrazol-3-yl)-2,4-dioxo-1,4-dihydro-2H-quinazolin-3-yl]-methanesulfonamide]", "In vivo orally active": "Yes"},
      {"molecule": "CCCC(O)c1cc2c(=O)n(NS(C)(=O)=O)c(=O)[nH]c2cc1C(F)(F)F", "note": "(stereo not drawn) [Compound A-15, N-[6-(1-Hydroxy-butyl)-2,4-dioxo-7-trifluoromethyl-1,4-dihydro-2H-quinazolin-3-yl]-methanesulfonamide]", "In vivo orally active": "Yes"},
      {"molecule": "CCc1cc2[nH]c(=O)n(NS(C)(=O)=O)c(=O)c2cc1-c1ccnn1C", "note": "[Compound C-11, N-[7-Ethyl-6-(2-methyl-2H-pyrazol-3-yl)-2,4-dioxo-1,4-dihydro-2H-quinazolin-3-yl]-methanesulfonamide]", "In vivo orally active": "Yes"},
      {"molecule": "CC(C)n1nccc1-c1cc2c(=O)n(NS(C)(=O)=O)c(=O)[nH]c2cc1C(C)(F)F", "note": "[Compound C-16, N-[7-(1,1-difluoro-ethyl)-6-(2-isopropyl-2H-pyrazol-3-yl)-2,4-dioxo-1,4-dihydro-2H-quinazolin-3-yl]-methanesulfonamide]", "In vivo orally active": "Yes"},
      {"molecule": "CC(OC1CCCC1)c1cc2c(=O)n(NS(C)(=O)=O)c(=O)[nH]c2cc1C(F)(F)F", "note": "(stereo not drawn) [Compound A-14, N-[6-(1-Cyclopentyloxy-ethyl)-2,4-dioxo-7-trifluoromethyl-1,4-dihydro-2H-quinazolin-3-yl]-methanesulfonamide]", "In vivo orally active": "yes"},
      {"molecule": "Cn1nccc1-c1cc2c(=O)n(NS(C)(=O)=O)c(=O)[nH]c2cc1C(F)(F)F", "note": "[Compound C-18, N-[6-(2-Methyl-2H-pyrazol-3-yl)-2,4-dioxo-7-trifluoromethyl-1,4-dihydro-2H-quinazolin-3-yl]-methanesulfonamide]", "In vivo orally active": "Yes"},
      {"molecule": "CCc1cc2[nH]c(=O)n(NS(C)(=O)=O)c(=O)c2cc1-c1ccnn1CC", "note": "[Compound C-12, N-[7-Ethyl-6-(2-ethyl-2H-pyrazol-3-yl)-2,4-dioxo-1,4-dihydro-2H-quinazolin-3-yl]-methanesulfonamide]", "In vivo orally active": "Yes"},
      {"molecule": "CC(O)c1cc2c(=O)n(NS(C)(=O)=O)c(=O)[nH]c2cc1C(F)(F)F", "note": "(stereo not drawn) [Compound A-1, N-[6-(1-Hydroxy-ethyl)-2,4-dioxo-7-trifluoromethyl-1,4-dihydro-2H-quinazolin-3-yl]-methanesulfonamide]", "In vivo orally active": "Yes"},
      {"molecule": "CCOC(C)c1cc2c(=O)n(NS(C)(=O)=O)c(=O)[nH]c2cc1C(F)(F)F", "note": "(stereo not drawn) [Compound A-5, N-[6-(1-Ethoxy-ethyl)-2,4-dioxo-7-trifluoromethyl-1,4-dihydro-2H-quinazolin-3-yl]-methanesulfonamide]", "In vivo orally active": "Yes"},
      {"molecule": "COCCC(O)c1cc2c(=O)n(NS(C)(=O)=O)c(=O)[nH]c2cc1C(F)(F)F", "note": "(stereo not drawn) [Compound A-18, N-[6-(1-Hydroxy-3-methoxy-propyl)-2,4-dioxo-7-trifluoromethyl-1,4-dihydro-2H-quinazolin-3-yl]-methanesulfonamide]", "In vivo orally active": "Yes"},
      {"molecule": "CCCOC(CC)c1cc2c(=O)n(NS(C)(=O)=O)c(=O)[nH]c2cc1C(F)(F)F", "note": "(stereo not drawn) [Compound A-6, N-[2,4-Dioxo-6-(1-propoxy-propyl)-7-trifluoromethyl-1,4-dihydro-2H-quinazolin-3-yl]-methanesulfonamide]", "In vivo orally active": "Yes"},
      {"molecule": "CCOC(CC)c1cc2c(=O)n(NS(C)(=O)=O)c(=O)[nH]c2cc1C(F)(F)F", "note": "(stereo not drawn) [Compound A-13, N-[6-(1-Ethoxy-propyl)-2,4-dioxo-7-trifluoromethyl-1,4-dihydro-2H-quinazolin-3-yl]-methanesulfonamide]", "In vivo orally active": "Yes"},
      {"molecule": "CS(=O)(=O)Nn1c(=O)[nH]c2cc(C(F)(F)F)c(-c3ccnn3O)cc2c1=O", "note": "[Compound C-5, N-[6-(2-Hydroxy-2H-pyrazol-3-yl)-2,4-dioxo-7-trifluoromethyl-1,4-dihydro-2H-quinazolin-3-yl]-methanesulfonamide]", "In vivo orally active": "Yes"},
      {"molecule": "CCC(OC(C)C)c1cc2c(=O)n(NS(C)(=O)=O)c(=O)[nH]c2cc1C(F)(F)F", "note": "(stereo not drawn) [Compound A-7, N-[6-(1-isopropoxy-propyl)-2,4-dioxo-7-trifluoromethyl-1,4-dihydro-2H-quinazolin-3-yl]-methanesulfonamide]", "In vivo orally active": "Yes"},
      {"molecule": "CC(C)OC(C)c1cc2c(=O)n(NS(C)(=O)=O)c(=O)[nH]c2cc1C(F)(F)F", "note": "(stereo not drawn) [Compound A-4, N-[6-(1-Isopropoxy-ethyl)-2,4-dioxo-7-trifluoromethyl-1,4-dihydro-2H-quinazolin-3-yl]-methanesulfonamide]", "In vivo orally active": "Yes"},
      {"molecule": "CS(=O)(=O)Nn1c(=O)[nH]c2cc(C(F)(F)F)c(C3CCCO3)cc2c1=O", "note": "(stereo not drawn) [Compound B-2, N-[2,4-Dioxo-6-(tetrahydro-furan-2-yl)-7-trifluoromethyl-1,4-dihydro-2H-quinazolin-3-yl]-methanesulfonamide]", "In vivo orally active": "Yes"}
    ]}
  ]
}
